Tests used:
[1] = target: T1, RabGGTase (Rattus norvegicus, UniProt Q08602+Q08603); assay: In vitro RabGGTase (GGTase-II) assay with REP-1; type: biochemical
T1 construct: purchased JENA BIOSCIENCE
T1 sequence (Q08602 1-567): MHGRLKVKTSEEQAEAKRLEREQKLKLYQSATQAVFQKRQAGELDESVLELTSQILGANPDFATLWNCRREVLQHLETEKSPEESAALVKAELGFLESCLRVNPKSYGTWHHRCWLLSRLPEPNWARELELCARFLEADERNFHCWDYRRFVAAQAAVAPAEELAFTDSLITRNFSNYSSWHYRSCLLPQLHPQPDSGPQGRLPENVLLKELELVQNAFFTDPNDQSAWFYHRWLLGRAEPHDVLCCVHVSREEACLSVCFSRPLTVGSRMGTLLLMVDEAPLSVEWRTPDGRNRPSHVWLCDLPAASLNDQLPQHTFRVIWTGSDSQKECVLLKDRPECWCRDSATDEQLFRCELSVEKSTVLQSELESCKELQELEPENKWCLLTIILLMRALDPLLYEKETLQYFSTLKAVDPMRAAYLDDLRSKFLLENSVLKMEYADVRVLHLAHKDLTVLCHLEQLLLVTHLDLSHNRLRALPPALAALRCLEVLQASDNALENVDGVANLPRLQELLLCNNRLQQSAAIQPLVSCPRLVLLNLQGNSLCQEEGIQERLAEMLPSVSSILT
T1 sequence (Q08603 1-331): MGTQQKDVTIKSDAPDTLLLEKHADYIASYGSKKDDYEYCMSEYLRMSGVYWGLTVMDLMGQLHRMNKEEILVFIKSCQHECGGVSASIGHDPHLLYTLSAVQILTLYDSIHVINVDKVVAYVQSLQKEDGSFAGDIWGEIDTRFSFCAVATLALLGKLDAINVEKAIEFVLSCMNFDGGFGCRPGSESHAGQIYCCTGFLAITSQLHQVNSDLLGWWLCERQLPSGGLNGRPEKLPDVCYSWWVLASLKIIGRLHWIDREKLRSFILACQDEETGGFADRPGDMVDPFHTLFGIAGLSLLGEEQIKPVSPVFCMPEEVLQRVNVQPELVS
Method: The GGTase-I assay was carried out using RhoA as a substrate protein, GGTase-I (JENA Bioscience) and [3H]geranylgeranyl pyrophosphate. Incubation was for 30 min at 37° C. GGTase-II (or RabGGTase) assay was carried out using YPTI as a substrate protein, GGTase-II (Calbiochem, San Diego, Calif.) plus REP1 (Calbiochem) and [3H]geranylgeranyl pyrophosphate. Incubation was for 30 min at 37° C. FIGS. 20D-20F show the three dimensional structure of GGTase I (D), FTsse (E) and GGTase II (F) which can be obtained from X-ray diffraction studies of protein crystals.
For RabGGTase assays, the reaction contained the following components in 20 μl; 0.625 μl of [^3H]-GGPP (0.7 μM), 25 nM RabGGTase, 0.6 μM REP-1, 0.6 μM purified Rab7 or Ypt1 protein, 40 mM HEPES (pH 7.5), 150 mM NaCl, 5 mM DTT, 3 mM MgCl2 and 0.3% CHAPS. Reactions were carried out for 20 min at 37° C. and the products were analyzed as described above for the GGTase-I reaction. Graphing and Michaelis-Menten analysis were performed using Prism version5 (GraphPad, San Diego Calif.).

[2] = tested on: MDA-MB-231; assay: MDA-MB-231 cell growth inhibition; type: cell-based, human; conditions: Homo sapiens, MDA-MB-231, 72 h; 3 days, CCK-8, vs DMSO; read-out: IC50, MDA-MB-231 (Breast)
Method: In FIG. 9-24 in vitro IC50 values for the GGTase I activity are reported. In Tables 7-15 in cell GI50 values for the growth inhibition of a variety of cancer cell lines (e.g., Jurkat, K562, MDA-MB-231, BT474, MCF7, MiaPaCa2, Aspc-1, Panc-1, Capan-2, CFpac-1, and MCF10a) are reported.
Cell viability was determined by Cell Counting Kit-8 (CCK-8, Dojindo, Kumamoto, Japan) as described previously (31). Cell viability was calculated relative to the DMSO control. Cell cycle profile was analyzed by flow cytometry as described previously (32).

[3] = tested on: H-Ras farnesylation in NIH3T3 cells; assay: H-Ras mobility shift immunoblot in NIH3T3 cells; type: cell-based; conditions: 48 hours
Method: K562 cells were treated with modified compounds for 72 hours and then cell number was counted. IC50 values of cell viability relative to the DMSO were measured. […] Data represent the mean+/−S.D. of two measurements from two independent experiments. *, P<0.05 compared with the value for DMSO. […] Whole cell lysates from cells treated with DMSO, P5-H6, P61-A6, GGTI (GGTI-298), FTI (BMS-225975) or RabGGTI (P49-F6) for 48 hours were prepared and processed for immunoblot analysis using antibody against unprenylated form of Rap1 (C: upper panel), Total-Rap1 (C: middle panel), H-Ras (D: upper panel), Rab5b (E: upper panel) or actin (C, D, and E: lower panel). The immunoblots shown represent two independent experiments for each treatment.
This was examined by using a farnesylated protein H-Ras.

[4] = tested on: PANC-1 xenograft tumor; assay: PANC-1 xenograft tumor growth in SCID mice; type: in vivo; conditions: 1.16 mg/kg i.p., six times per week
Method: Xenograft tumor experiments have shown that GGTI's can inhibit PANC-1 tumor growth in mice. Seven SCID mice (six weeks old) received a subcutaneous implantation of 5 million PANC-1 cells. The mice were supplied with food and water for 14 days before treatment was started. The treatment group received 160 uM GGTI (p61A6) in 0.25 ml 0.9% NaCl while the control group received 0.25 ml 0.9% NaCl. Each dosage was injected 3 times per week. These dosage were designed to administer p61A6 at approximately 1.16 mg/kg of body weight. Also, since the mouse has about 2 ml blood, the final concentration of p61A6 in vivo was approximately 20 uM. The final DMSO concentration in the control group was approximately 0.8%.
Additional xenograft tumor experiments have shown that GGTI's can inhibit PANC-1 tumor growth in mice and reduce the size of the tumor. Six SCID mice (six weeks old) received a subcutaneous implantation of 3 million PANC-1 cells. The mice were supplied with food and water for 14 days before treatment began. […] Every two weeks each mouse's body weight and tumor volume was measured.

| inhibition of RabGGTase ([1]; even at 50,000 nM) | inhibition of RabGGTase activity ([1]; concentration increased to 100,000 nM) | IC50 [2] [µM] | Structure (SMILES) | mobility shift of H-Ras (protein farnesylation) [3] | PANC-1 xenograft tumor growth [4] |
| --- | --- | --- | --- | --- | --- |
| little inhibition | – | – | Cc1ccccc1S(=O)(=O)N1[C@@H](c2cccc(Cl)c2)C(C(=O)O)=CC[C@H]1c1ccc(Cl)cc1 [P3-E5] | – | – |
| – | No significant inhibition | 8.7 | Cc1ccccc1S(=O)(=O)N1C(c2ccc(Cl)cc2)C(C(=O)NC(Cc2ccccc2)C(N)=O)=CC1C(C)(C)C (centres unmarked) [P61-A6] | no such mobility shift | almost complete inhibition |

Reference: patent US8815935B2, “Inhibitors of protein prenyltransferases” (The Regents of the University of California, priority 2008, dated 2014)
